A short description of assay [1]: antioxidant activity testing (DPPH scavenging activity). The class given is biochemical. Particulars: corresponds to ppm VitE. The source says: According to the present invention, the products of the Beta-carotene, lutein, lycopene, and of mixture of these three (in 0.5:4:4 optimal weight ratio) from the Allied Biochemical Industrial Co., Ltd were sent to “Food Industrial Research And Development Institute” (331 Shih-Pin Road, Hsinchu, 300 Taiwan) for antioxidant activity testing (DPPH scavenging activity).

Assay [2] relates to thiobarbituric acid-reactive substances (TBARS), lipid peroxidation. As to conditions: single carotenoid; Control (no antioxidants) 100 ± 9; cited from earlier work.
A further assay concerns tissue factor. Particulars: added into micro-emulsion; 0.5, 2 and 10 μmol/L; P<0.01; cited from earlier work.
In another assay the test system is cardiovascular disease. As to conditions: middle-aged or elderly; cited from earlier work.
The subject of a further assay is macular degeneration. As to conditions: person ingesting 6 mg per day; cited from earlier work.
The next assay relates to myocardial infarction. As to conditions: contrast of the 10th and 90th percentiles of carotenoid level in adipose tissue; cited from earlier work.

For `CC1=C(/C=C/C(C)=C/C=C/C(C)=C/C=C/C=C(C)/C=C/C=C(C)/C=C/C2=C(C)CCCC2(C)C)C(C)(C)CCC1` [β-carotene], in assay [1], the Scavenging rate/g entry is “correspond to 7.08 × 10^3 ppm VitE”. For the same compound, in assay [2], the “TBARS (%) measured” value is reported as 73 ± 9%. The tissue factor activity result in the assay on tissue factor is recorded as “suppress tissue factor activity”. Besides, the “reduction of the risk of cardiovascular disease” value with cardiovascular disease is listed as 45%.
Regarding `CC1=C[C@H](O)CC(C)(C)[C@H]1/C=C/C(C)=C/C=C/C(C)=C/C=C/C=C(C)/C=C/C=C(C)/C=C/C1=C(C)C[C@@H](O)CC1(C)C` [Lutein], the Scavenging rate/g entry in assay [1] was “correspond to 7.69 × 10^2 ppm VitE”. In addition, the “TBARS (%) measured” value in assay [2] is recorded as 77 ± 9%. In addition, in the assay on tissue factor, the tissue factor activity result was “suppress tissue factor activity”. In addition, in the assay with macular degeneration, the “lower risk for macular degeneration” value is recorded as 43%.
As for `CC(C)=CCC/C(C)=C/C=C/C(C)=C/C=C/C(C)=C/C=C/C=C(C)/C=C/C=C(C)/C=C/C=C(\C)CCC=C(C)C` [Lycopene], the Scavenging rate/g result in assay [1] is “correspond to 2.35 × 10^4 ppm VitE”. The “TBARS (%) measured” value in assay [2] was 25 ± 10%. Moreover, the tissue factor activity entry with tissue factor was “suppress tissue factor activity”. Moreover, the “odds ratio, myocardial infarction” value in the assay on myocardial infarction is recorded as 0.52.

Values taken from patent publication US20100004330A1, “ANTI-OXIDATIVE CONTENT MATERIAL USED IN DRINK AND FOOD MANUFACTURING METHOD” (priority 2008, published 2010).
